In one data set the test system is Ndufs4 KO mouse. Put plainly: Ndufs4 KO mouse model of Leigh syndrome (survival, body weight, temperature, behavior, neuropathology). It is filed as in vivo. Conditions: daily HypoxyStat initiated at P50.
The nature of data set [1]: Safety studies in mice at optimized dose. In kind it is in vivo. Conditions: optimized dose (400 mg/kg daily). On the procedure: Additionally, we used the Reaction Bio InVEST panel to test 25+ potential off-targets that have been identified by a consortium of pharmaceutical companies as high-yield candidates.
Hematocrit was determined with an iStat VetScan 1 with Zoetis Chem 8+ cartridges. Blood glucose measurements were performed using OneTouch UltraPlus glucometer. Whole blood chemistry measurements were performed on a VetScan HM5.

The nature of data set [2]: Mouse oral pharmacokinetics (blood and plasma, LC-MS/MS). In kind it is in vivo, C57BL/6 mice. On the procedure: We conducted a PK/PD study to determine the optimal dosing strategy for HypoxyStat in a chronic setting. First we administered a single 10 mg/kg oral dose of HypoxyStat to adult C57BL/6 mice and monitored its concentration in blood and plasma over a 10-day period (Figure 3A, left). Next, we administered HypoxyStat at doses of 20, 60, 200, and 600 mg/kg via oral gavage three times per week for 12 days. […] Based on blood levels of HypoxyStat and Hb measured on day 12, we estimated Hb occupancy to be 29.3% at 200 mg/kg and 41.4% at 600 mg/kg (Figure S1).[27]
Mouse plasma and whole blood samples were processed as outlined below. An equal volume of 3% aqueous formic acid in water was added to whole blood and plasma samples which were then vortexed at 600 rpm for 60 minutes at room temperature. Internal standard solution (acetonitrile containing 200 nM chrysin) was then added to the samples. They were then vortexed and centrifuged for 5 minutes at 4100 rpm and 4°C. Diluted extracts were injected into a Sciex 5500 LC-MS/MS system operated in positive mode for analysis. A Waters Acquity BEH C18 (50 x 2 mm, […]) UPLC column was used with Mobile Phases A (water:acetonitrile:formic acid [95:5:0.1, v:v:v]) and B (methanol:acetonitrile:formic acid [50:50:0.1, v:v:v]) to separate analytes. Multiple reaction monitoring transitions of 368/230 and 255/153 were used for HypoxyStat and chrysin, respectively.

The subject of data set [3] is 25+ potential off-targets. The data set can be described thus: Reaction Bio InVEST off-target panel. Conditions: duplicate; significance = 50% or greater inhibition in both replicates. The method, then: This assay utilizes colorimetry to monitor the activity of acetylcholinesterase (AChE). Enzyme activity is measured by the conversion of acetylthiocholine to thiocholine, which is detected through an enhanced Ellman’s reaction. In each well, 20 μL of Assay Buffer (75.4 mM Na2HPO4, 24.6 mM NaH2PO4, pH 7.5) was added to wells designated as background/control (no enzyme). Subsequently, 20 μL of 0.2 U/mL AChE was added to the remaining wells. The reaction mixture was incubated at room temperature for 15 minutes on a shaker to allow for enzyme and drug interaction. To initiate the improved Ellman’s reaction, 30 μL of buffer containing 650 μM DTNB and 650 μM acetylthiocholine was added to each well. The color intensity, which is proportional to enzyme activity, was measured at 412 nm using an Envision 2105 plate reader.
The peroxidase activity is measured colorimetrically by monitoring the appearance of oxidized TMPD at 590 nm. […] Absorbance was then measured at 590 nm using an Envision 2105 plate reader (Revvity).
This assay uses fluorescence polarization to monitor binding to the hERG channel. […] Fluorescence polarization was measured at Ex/Em = 531 nm FP/595 nm P & S, and mP values were calculated.
The ADP-Glo™ assay is a luminescent method used to monitor ADP-producing biochemical reactions. […] Luminescence was then measured. […]

The Cmax is the highest concentration seen after dosing. The term half-life denotes the time in which the quantity being followed falls by half.

On to `O=Cc1ccccc1C(=O)N1CCCC[C@H]1COc1cccc(O)c1C=O` [HypoxyStat], for which the “reversal of body weight loss, impaired behavior and neurological lesions in late-stage KO mice” value in the data set on Ndufs4 KO mouse is on record as “reversed multiple other disease presentations”. Moreover, in the data set on Ndufs4 KO mouse (p < 0.05 Mantel-Cox), the “lifespan of late-stage Ndufs4 KO mice” value is “significantly extended the lifespan”. Moreover, in data set [1], the “classical safety parameters (body weight, organ weights, complete blood count, clinical chemistries)” value was “not adversely affected”. In addition, in data set [2] (20, 60, 200 and 600 mg/kg oral gavage three times per week for 12 days), the “concentration within red blood cells” value is “dose-dependent increase”. In data set [2] (C57BL/6, in vivo, oral, 10 mg/kg, Figure 2A, mouse), the Cmax turned out to be 1590 nM. Moreover, in data set [2] (mouse, in vivo, 10 mg/kg oral gavage, C57BL/6 mice, read-out: effective half-life (Mouse PO half-life) (converted)), the half-life is 121 h. Besides, the blood plasma ratio at 3 days in data set [2] (mouse, whole blood and plasma, 10 mg/kg oral gavage, C57BL/6 mice, 3 days post dosing) stood at 396. In data set [3], the “off-target inhibition or binding, InVEST panel” value is given as “All tests were negative”.

The record behind these values is paper PMC12186697, “HypoxyStat, a small-molecule form of hypoxia therapy that increases oxygen-hemoglobin affinity” (Cell, 2025).
